# Source: patent US10711040B2, “Low substituted polymyxins and compositions thereof” (priority 2014, dated 2020)
# Values joined by “and” are separate entries in the source; they are usually repeats but may differ in a detail not shown here. Equal values may be shown once.
# Legend:
# [1] = Tolerability in mice: clinical signs of toxicity, body weight, clinical scoring; settings: mouse, in vivo
# Description: (§1) Mice were treated with a mixture comprising 93% mono(N^γ-bis-sulfomethyl) Polymyxin E1 or CMS for 5 days and were monitored for clinical signs of toxicity and urine concentrations of KIM-1. […] The normal range of KIM-1 in mouse urine, as stated in the ELISA kit instruction, is 456-8048 pg/ml.
# (§2) The mixtures were received as dry powder and were dissolved in the vials in sterile saline to the concentration stated in table 1, immediately prior to injection.
# (§3) Once a day for 5 days, mice were treated subcutaneously in the neck region with 0.2 ml corresponding to the doses stated in Table 1. The dosing was based on a mean weight of 28 g.
# All the tested mixtures were well tolerated by mice as determined by body weight and clinical scoring.
# [2] = tested on: KIM-1 (kidney injury molecule-1); assay: Nephrotoxicity in mice, urinary KIM-1 by ELISA; type: in vivo; settings: 80 mg/kg subcutaneously once a day for 5 days; individual mice
# Description: Nephrotoxicity was measured using KIM-1 (kidney injury molecule-1) as a biomarker of acute tubular necrosis.
# as §1, §2, §3
# Urine samples were collected at 24 hrs after the 2nd dosing and 4 hrs after the 5th dosing. Samples were stored at −80° C. until analysed for KIM-1 concentrations
# Urine samples were thawed, centrifuged for 5 min at 2000 g and diluted ×50 prior to performing the ELISA according the instruction in the Quantikine ELISA mouse TIM-1/KIM-1/HAVCR Immunoassay kit.
# [3] = tested on: Pseudomonas aeruginosa (strain PAX11045); assay: Mouse model with pulmonary infection of Pseudomonas aeruginosa; type: in vivo; set-up: key to Clinical score at T = 19 / Clinical score at T = 22: 0: healthy; 1: minor clinical signs of infection and inflammation like piloerection in the skin, distress and social withdrawal; 2: moderate signs of infection like changed body position, changes in pattern of movement, lack of curiosity or changed activity.; 3: severe signs of infection like stiff movements, forced ventilation,; 4: severe pain, mouse was sacrificed immediately to minimize suffering; 5: The mouse was dead; settings: dose 10 mg/kg, peritoneal
# Description: A mouse model with pulmonary infections of Pseudomonas aeruginosa (strain PAX11045) were treated with peritoneal administration of Polymyxin E1, CMS E1 and mono bis-sulfomethylated Polymyxin E1. CFU is the calculated number of colony forming units in the lung tissue after 22 hours except for the non-treatment group of mice.
substance,measurement,setting,value
Colistimethate sodium [CMS],clinical signs of toxicity,[1],no clinical signs of toxicity
Gentamicin,Urinary KIM-1 concentrations after 5 doses,[2],12850 pg/mL and 5900 pg/mL and 5750 pg/mL
Polymyxin E1 [Polymyxin-E1],Clinical score at T = 19,[3]; individual mice,3 (6×) and 2
same,Clinical score at T = 22,[3]; individual mice,4 (2×) and 2 and 3 (4×)
same,mean log10 CFU,[3]; lung tissue after 22 hours,4.43 log10 CFU
same,log10 CFU lung,"[3]; lung tissue after 22 hours, individual mice, 10 mg/kg",5.65 log10 CFU and 4.08 log10 CFU and 6.06 log10 CFU and 4.05 log10 CFU and 3.78 log10 CFU and 3.70 log10 CFU and 3.72 log10 CFU
